Assay results as given in publication PMC10009108, “Design, synthesis and screening of indole acetic acid-based tri-azo moieties as antioxidants, anti-microbial and cytotoxic agents” (Frontiers in Pharmacology, 2023).
≈ marks a conversion by molar mass, not a printed value.

Columns and labels:
[1] = test system: Klebsiella pneumoniae (ATCC-1705); assay: Antibacterial assay, micro broth dilution; type: cell-based
From the text: (§1) The micro broth dilution method was used to establish the antibacterial potential of test samples against Staphylococcus aureus (ATCC-6538), Bacillus subtilis (ATCC-6633), Escherichia coli (ATCC-25922), Klebsiella pneumoniae (ATCC-1705), and Pseudomonas aeruginosa (ATCC-15442) and for the resistant strains of MRSA Staphylococcus aureus, P. aeruginosa and Escherichia coli. The procedure used is described by ([Sarker et al., 2007]). Bacterial inoculum was formed under aseptic conditions keeping the density near 5 × 10^4 CFU/mL in pre-autoclaved nutrient broth. Test samples of an aliquot of 5 µL were shifted to labeled wells of 96 well plates, and after that addition of 195 µL of nutrient broth; was accomplished. After that, a 2-fold serial dilution of every sample was arranged to get final concentrations of 12.5 μg/mL. Then, with the help of a micropipette, 195 µL of bacterial culture of respective strains was poured into each well; further advancement was incubating of plates for 30 min at the temperature of 37°C. […] Incubation of plates was again carried out at 37°C for 1 day, absorbance was noted, and net change in turbidity was the difference between two values of absorbance.
(§2) Schiff base tri-azo compounds were investigated for antibacterial potential. […] 6.25 μg/mL for 5b and 5g, and the least, Table 4 3.12 μg/mL was for 5f. […] Substituents with electron-withdrawing attributes, e.g., -NO2, -Cl, -OH on the aromatic ring, assert a great impact on the antibacterial activity of synthetic compounds. It is also observed that an increase in the number of -OH groups tend to enhance the activity ([Hosamani and Shingalapur, 2011]). Due to the difference in cell-wall composition of Gram + ve and -ve bacteria, different compounds show different features towards the same micro-organism ([Goszczyn’ska et al., 2015]).

[2] = test system: resistant S. aureus; assay: Antibacterial assay, resistant strains; type: cell-based, Staphylococcus aureus; set-up: key to Antibacterial activity, resistant S. aureus: Activity: Positive = have anti-bacterial activity; --- = no anti-bacterial activity; settings: 25 μg/mL; resistant strain
From the text: as §1, §2

[3] = test system: Mucor species (FCBP-0300); assay: Antifungal disc diffusion assay; type: cell-based; set-up: key to Zone of inhibition, Mucor: --- = no anti-fungal activity; settings: 20 μg/disc
Experimental: The antifungal response to these chemical moieties was evaluated through a procedure designated by ([Zahra et al., 2017]). Amphotericin B (4 mg/mL DMSO) is used as + ve control and DMSO as-ve one (5 μL/disc). Sterile SDA-coated plates were used, on which 100 µL of suspension of spores for each strain (previously reaped-in-Tween-20 solution) was spread. Discs of sterile filter paper containing 5 µL of sample solution (4 mg/mL DMSO) were kept on plates and incubated for 2 days at 28°C. Zones of inhibition were recorded.
The Synthetic compound library was subjected to an antifungal assay using five different strains of Fungai, i.e., Fusarium solani (FCBP-0291), Aspergillus fumigatus (FCBP-66), Aspergillus flavus (FCBP-0064), Aspergillus niger (FCBP-0198) and Mucor species (FCBP-0300). Amphotericin B was the standard drug used. […] The outcomes are concise in Table 5.

[4] = test system: Streptomyces 85 E strains; assay: Protein kinase inhibition assay; type: cell-based; set-up: key: Active = Bacterial activity; --- = no activity; settings: Sample Concentration = 20 μg/mL; Surfactin B 20 μg/mL
Experimental: The protocol followed for this is mentioned ([Fatima et al., 2015]). To assess the test compound’s inhibitory potential, Streptomyces 85 E strains were used, which were refreshed in tryptone soya broth at 37 for 1 day. Spores from refreshed cultures were utilized to prepare the bacterial culture. 100 μg compound was loaded on 5 mm discs of filter paper. These were kept on sowed plates. DMSO-permeated discs were the -ve control. The incubation period was 7 days, and outcomes were stated as bald and clear zones of inhibition.
These synthetic products were evaluated to estimate the inhibitory potential for protein kinase of […] 85 E. Protein kinase is involved with the mycelium production of this species, so the growth patterns were observed as the bald zone. […] One of the propitious targets in cancer treatment is the inhibition of protein kinases. Protein phosphorylation by protein kinases at various residues regulates diverse biological processes, which may include apoptosis, proliferation and differentiation of cells. Deregulation at any step in early tumorigenesis may lead to cancer ([Yao et al., 2011]). Aerial hyphae formation in Streptomyces depends upon protein kinase activity; this scenario is exploited in this test; to inquire about these compounds’ kinase inhibition potential and to look at their anti-cancer potential. The advantage of using Streptomyces for kinase inhibition assay is its predisposition to a wide range of eukaryotic cells. Whole-cell assay of Streptomyces not only identifies the compound’s cytotoxic potential but also identifies signal transduction inhibitors for various activities, e.g., antitumor, anti-mycobacterial, and anti-infective ([Waters et al., 2002]). […] Activity with a bald zone of 10.5 mm and a clear zone of 7.5 mm, following is 5a with a bald zone of 9 mm and a clear zone of 6 mm, and for 5g, values are 7.5 and 6 mm, respectively. It means that these compounds have the potential for protein kinase inhibition as well as the toxicity of the compound.

[5] = test system: Pseudomonas aeruginosa (ATCC-15442); assay: Antibacterial assay, micro broth dilution; type: cell-based; set-up: key: Active = Bacterial activity; --- = no activity; settings: 25 μg/mL
[6] = test system: Klebsiella pneumoniae (ATCC-1705); assay: Antibacterial assay, micro broth dilution; type: cell-based; set-up: key: Active = Bacterial activity; --- = no activity; settings: 25 μg/mL
[7] = test system: Escherichia coli (ATCC-25922); assay: Antibacterial assay, micro broth dilution; type: cell-based; set-up: key: Active = Bacterial activity; --- = no activity; settings: 25 μg/mL
[8] = test system: Streptomyces 85 E strains; assay: Protein kinase inhibition assay; type: cell-based; set-up: key to Bald zone: Active = Bacterial activity; --- = no activity; settings: Sample Concentration = 20 μg/mL; Surfactin B 20 μg/mL

SMILES	MIC ([1]; ATCC1705)	Antibacterial activity, resistant S. aureus: Activity [2]	Zone of inhibition, Mucor [3]	Clear zone [4]	Antibacterial activity, Pseudomonas aeruginosa: Activity [5]	Antibacterial activity, Klebsiella pneumoniae: Activity [6]	Antibacterial activity, E. coli: Activity [7]	Bald zone [8]	MIC ([1]; ATCC1705, 24 h)	Clear zone [8]
COc1cccc(C=Nn2c(Cc3c[nH]c4ccccc34)n[nH]c2=S)c1 [Compound 5b]	6.25 µg/mL (≈ 17.2 µM)	---	---	7.5 mm	Active	Active	---	10.5 mm		
O=[N+]([O-])c1ccc(C=Nn2c(Cc3c[nH]c4ccccc34)n[nH]c2=S)cc1 [Compound 5d]	12.5 µg/mL (≈ 33 µM)	---	---	---	---	Active	Active	---		
Oc1cccc(C=Nn2c(Cc3c[nH]c4ccccc34)n[nH]c2=S)c1 [Compound 5a]	12.5 µg/mL (≈ 35.8 µM)		---	6 mm	Active	Active		9 mm		
S=c1[nH]nc(Cc2c[nH]c3ccccc23)n1N=Cc1ccc(Cl)cc1 [Compound 5c]	12.5 µg/mL (≈ 34 µM)	---	---	---	---	Active	Active	---		
S=c1[nH]nc(Cc2c[nH]c3ccccc23)n1N=Cc1cccc(Cl)c1 [Compound 5f]	3.12 µg/mL (≈ 8.48 µM)	---	---	---	---	Active	---	---	3.12 µg/mL (≈ 8.49 µM)	
Oc1ccc(C=Nn2c(Cc3c[nH]c4ccccc34)n[nH]c2=S)cc1 [Compound 5e]	12.5 µg/mL (≈ 35.8 µM)	---	---	---	Active	Active	Active	---		
COc1cc(C=Nn2c(Cc3c[nH]c4ccccc34)n[nH]c2=S)cc(OC)c1OC [Compound 5g]	6.25 µg/mL (≈ 14.8 µM)	---	---		---	Active	---	7.5 mm		6 mm
